The test has as its system SARS-CoV-2 variants, including Delta, BA.2.75, XBB.1.16, and KP.2. The settings on record: BA.2.75, XBB.1.16, and KP.2, 48 h.

Positions of bridges follow the written chain, without caps; N, C: chain ends. Non-standard residues stand in square brackets, D forms with d. Residues, ends and D or L forms follow the SMILES beside them. S5 = C=CCCC[C@](C)(N)C(=O)O

IC50 data for 2 compounds are collected here from PMC12432378 (Cell Reports Medicine, 2025).

The compound `CC[C@H](C)[C@H](NC(=O)[C@H](C)NC(=O)[C@H](CCSC)NC(=O)[C@H](CCC(=O)O)NC(=O)[C@H](CC(=O)O)NC(=O)[C@H](CO)NC(=O)[C@H](CC(C)C)NC(=O)[C@H](CC(=O)O)NC(=O)[C@H](CC(C)C)NC(=O)[C@H](CC(C)C)NC(=O)[C@@H](NC(=O)[C@@H](NC(=O)[C@H](CC(N)=O)NC(=O)[C@@H](NC(=O)[C@H](CCCCN)NC(=O)[C@H](CO)NC(=O)[C@@H](NC(=O)[C@H](CCC(=O)O)NC(C)=O)[C@@H](C)CC)[C@@H](C)CC)C(C)C)[C@@H](C)O)C(=O)N[C@@H](CC(C)C)C(=O)N[C@@H](CC(C)C)C(=O)N[C@@H](CCC(=O)O)C(=O)N[C@@H](C)C(=O)N[C@H](C(=O)N[C@@H](CCCCN)C(=O)N[C@@H](CCC(N)=O)C(=O)N[C@@H](CC(C)C)C(=O)N[C@@H](CC(N)=O)C(=O)N[C@@H](CC(=O)O)C(=O)N[C@@H](CO)C(=O)N[C@@H](Cc1ccc(O)cc1)C(=O)N[C@H](C(=O)N[C@@H](CC(=O)O)C(=O)N[C@@H](CC(C)C)C(=O)N[C@@H](CCCCN)C(=O)N[C@@H](CCC(=O)O)C(=O)N[C@@H](CC(C)C)C(N)=O)[C@@H](C)CC)[C@@H](C)CC` [MjHKU4r-HR2P9] displayed an IC50 of 384 to 460 nM.

The compound `CC[C@H](C)[C@H](NC(=O)[C@H](C)NC(=O)[C@H](CCSC)NC(=O)[C@H](CCC(=O)O)NC(=O)[C@H](CC(=O)O)NC(=O)[C@H](CO)NC(=O)[C@H](CC(C)C)NC(=O)[C@H](CC(=O)O)NC(=O)[C@H](CC(C)C)NC(=O)[C@H](CC(C)C)NC(=O)[C@@H](NC(=O)[C@@H](NC(=O)[C@H](CC(N)=O)NC(=O)[C@@H](NC(=O)[C@H](CCCCN)NC(=O)[C@H](CO)NC(=O)[C@@H](NC(=O)[C@H](CCC(=O)O)NC(C)=O)[C@@H](C)CC)[C@@H](C)CC)C(C)C)[C@@H](C)O)C(=O)N[C@@H](CC(C)C)C(=O)N[C@@H](CC(C)C)C(=O)N[C@@]1(C)CCCC=CCCC[C@@](C)(C(=O)N[C@@H](CC(C)C)C(=O)N[C@@H](CC(N)=O)C(=O)N[C@@H](CC(=O)O)C(=O)N[C@@H](CO)C(=O)N[C@@H](Cc2ccc(O)cc2)C(=O)N[C@H](C(=O)N[C@@H](CC(=O)O)C(=O)N[C@@H](CC(C)C)C(=O)N[C@@H](CCCCN)C(=O)N[C@@H](CCC(=O)O)C(=O)N[C@@H](CC(C)C)C(N)=O)[C@@H](C)CC)NC(=O)[C@H](CCCCN)NC(=O)[C@H]([C@@H](C)CC)NC(=O)[C@H](C)NC1=O` [MjHKU4r-HR2P10] (Ac-EISKINVTLLDLSDEMAILL[S5]AIK[S5]LNDSYIDLKEL-NH2; staple 21-25) came in with an IC50 of 85.9 to 192 nM.
